ChEMBL document CHEMBL1201862, “PubChem BioAssay data set” (2004)
Blank lines part the entries; values can stand above or below the compound they belong to. Active and inactive are the calls of the source.

How the values were obtained:
[1] = molecular target: T1, Ubiquitin-conjugating enzyme E2 N (Homo sapiens, UniProt P61088); format: functional;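 further: Dose-response confirmation in a TR-FRET assay detecting UBC13-driven polyubiquitin chain formation, inhibition measured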
T1 sequence (P61088 whole entry): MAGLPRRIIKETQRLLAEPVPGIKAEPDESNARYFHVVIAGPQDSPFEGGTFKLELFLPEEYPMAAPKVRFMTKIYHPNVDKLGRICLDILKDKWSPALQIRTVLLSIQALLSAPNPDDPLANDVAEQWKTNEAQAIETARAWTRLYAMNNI

[2] = molecular target: T2, Microphthalmia-associated transcription factor (Homo sapiens, UniProt O75030); test: TRPM1 promoter luciferase signal decrease, dose response, MITF inhibitor project, cell-based, SK-MEL-5, cherry-picked, set 3 (AID 493073); format: functional
T2 sequence (O75030 whole entry): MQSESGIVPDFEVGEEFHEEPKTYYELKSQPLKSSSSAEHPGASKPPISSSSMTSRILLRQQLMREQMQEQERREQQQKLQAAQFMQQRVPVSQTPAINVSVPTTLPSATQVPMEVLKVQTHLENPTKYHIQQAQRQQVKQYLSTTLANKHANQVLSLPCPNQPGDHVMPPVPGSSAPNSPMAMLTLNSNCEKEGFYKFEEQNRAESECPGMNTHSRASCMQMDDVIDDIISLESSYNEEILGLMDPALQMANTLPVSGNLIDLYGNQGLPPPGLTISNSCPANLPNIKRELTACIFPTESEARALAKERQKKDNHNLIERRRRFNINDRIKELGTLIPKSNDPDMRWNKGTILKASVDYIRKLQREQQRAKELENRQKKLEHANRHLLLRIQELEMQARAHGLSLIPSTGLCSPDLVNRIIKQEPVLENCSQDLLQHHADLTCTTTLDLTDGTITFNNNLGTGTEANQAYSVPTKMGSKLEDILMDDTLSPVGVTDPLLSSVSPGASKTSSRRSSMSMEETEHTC

[3] = tested on: H9c2; test: cells; format: functional, cell-based; settings: Rattus norvegicus, H9c2, Myocardium;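 further: confirmatory concentration-response retest of ultra-high-throughput screening hits for modulation of myocardial damage; cell death induced by hydrogen peroxide oxidative stress; compound pretreatment for 60 min then peroxide exposure for 2 h; potency is for protecting the cells against peroxide damage rather than for killing them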
[4] = tested on: A-375; test: A375 melanoma cell viability reduction, dose response, counter-screen for MITF modulator project, cherry-pick samples, set 2 (AID 540335); format: functional, cell-based; settings: Homo sapiens
[5] = Shn3 3'UTR reporter inhibitors, dose response, cell-based, Clone20 osteoblasts, firefly luciferase, cherry-picked (AID 624132); format: functional;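 further: firefly luciferase luminescence from reporter carrying the Shn3 3'UTR in osteoblasts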
[6] = HepG2 cell cytotoxicity, dose response, cytotoxicity control for Shn3 inhibitor project, CellTiter-Glo, cherry-picked (AID 624134); format: functional, cell-based
[7] = control 3'UTR Renilla luciferase suppression, dose response, counter-screen for Shn3 inhibitor project, cell-based, Clone20-Shn3RL, cherry-picked (AID 624133); format: functional
[8] = insulin promoter down-regulators in MIN6 cells, imaging, high-content screening, mouse beta cells (AID 1628); format: functional
[9] = cytotoxicity in MIN6 insulinoma cells, dose response, cytotoxicity control, cell-based, mouse insulinoma (AID 2122); format: functional;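 further: confirmatory high-throughput counterscreen run to flag cytotoxic compounds; mouse MIN-6 beta cells carrying an insulin promoter eGFP reporter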
[10] = molecular target: T3, Heat shock factor protein 1 (Mus musculus, UniProt P38532); test: inhibition of MG132-induced HSE-luciferase signal, confirmation, cell-based, NIH3T3, luminescence, dose retest (AID 2382); format: functional;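 further: NIH3T3 fibroblasts with HSF1-driven luciferase reporter stressed by proteasome inhibitor MG132; luminescence from HSF1-driven luciferase expression after 8 hours of MG132 stress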
T3 sequence (P38532 whole entry): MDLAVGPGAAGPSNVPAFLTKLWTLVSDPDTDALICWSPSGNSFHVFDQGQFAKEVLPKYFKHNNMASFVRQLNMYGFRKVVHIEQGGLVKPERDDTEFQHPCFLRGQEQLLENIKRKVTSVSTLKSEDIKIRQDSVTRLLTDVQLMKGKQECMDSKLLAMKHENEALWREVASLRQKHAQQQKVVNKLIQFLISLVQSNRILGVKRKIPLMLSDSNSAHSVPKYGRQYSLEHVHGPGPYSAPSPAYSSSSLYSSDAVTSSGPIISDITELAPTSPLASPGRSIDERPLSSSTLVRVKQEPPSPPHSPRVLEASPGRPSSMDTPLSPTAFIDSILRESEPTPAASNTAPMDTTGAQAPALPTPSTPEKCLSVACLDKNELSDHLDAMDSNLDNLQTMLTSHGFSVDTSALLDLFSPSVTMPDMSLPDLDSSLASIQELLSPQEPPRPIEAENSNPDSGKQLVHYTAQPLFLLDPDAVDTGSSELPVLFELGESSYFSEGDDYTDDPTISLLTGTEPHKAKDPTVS

[11] = tested on: INS1; test: beta cell apoptosis inhibitors, cytokine rescue, dose response, luminescence, retest (AID 449756); format: functional, cell-based; settings: Rattus norvegicus;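 further: cell death triggered by IL-1 beta plus TNF-alpha plus IFN-gamma mixture; protective hits raise ATP signal compared with cytokine alone wells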
[12] = molecular target: Dual specificity tyrosine-phosphorylation-regulated kinase 1A (Rattus norvegicus, UniProt Q63470); format: biochemical, Homo sapiens
[13] = molecular target: Cytochrome P450 2D6 (Homo sapiens, UniProt P10635);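 further: CYP2D6 member of a cytochrome P450 panel assay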
Chain of Cytochrome P450 2D6 (P10635 whole entry, the tested form may be a part): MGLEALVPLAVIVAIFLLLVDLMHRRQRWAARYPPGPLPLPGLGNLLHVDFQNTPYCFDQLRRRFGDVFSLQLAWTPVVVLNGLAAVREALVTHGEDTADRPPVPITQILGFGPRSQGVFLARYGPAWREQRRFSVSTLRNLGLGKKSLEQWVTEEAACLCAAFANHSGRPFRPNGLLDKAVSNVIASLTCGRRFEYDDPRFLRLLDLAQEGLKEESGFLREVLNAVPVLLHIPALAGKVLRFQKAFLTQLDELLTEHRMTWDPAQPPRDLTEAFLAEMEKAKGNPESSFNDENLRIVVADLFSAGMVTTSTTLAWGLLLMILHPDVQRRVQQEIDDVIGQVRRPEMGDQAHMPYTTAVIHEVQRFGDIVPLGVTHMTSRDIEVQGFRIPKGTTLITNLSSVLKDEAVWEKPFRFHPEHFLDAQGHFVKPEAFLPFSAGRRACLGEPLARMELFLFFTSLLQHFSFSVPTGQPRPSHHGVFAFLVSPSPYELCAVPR

[14] = molecular target: T4, RNA-binding protein pos-1 (Caenorhabditis elegans, UniProt G5EF15); test: inhibitors of POS-1/mex-3 RNA binding, dose response, biochemical, fluorescence polarization (AID 1964);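 further: purified POS-1 fused to maltose binding protein made in E. coli; potency of compounds blocking POS-1 binding to fluorescent RNA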
T4 sequence (G5EF15 whole entry): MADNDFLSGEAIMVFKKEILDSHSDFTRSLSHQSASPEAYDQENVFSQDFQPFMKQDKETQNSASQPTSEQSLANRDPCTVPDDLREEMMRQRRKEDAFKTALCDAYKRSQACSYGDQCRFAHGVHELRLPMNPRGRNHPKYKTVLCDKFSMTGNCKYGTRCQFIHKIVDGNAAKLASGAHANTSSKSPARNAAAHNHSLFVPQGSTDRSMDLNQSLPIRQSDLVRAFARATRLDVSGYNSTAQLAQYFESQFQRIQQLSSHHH

[15] = molecular target: T5, Zinc finger protein mex-5 (Caenorhabditis elegans, UniProt Q9XUB2); test: MEX-5/TCR-2 RNA interaction inhibitors, dose response, biochemical, C. elegans, fluorescence polarization (AID 1960)
T5 sequence (Q9XUB2 whole entry): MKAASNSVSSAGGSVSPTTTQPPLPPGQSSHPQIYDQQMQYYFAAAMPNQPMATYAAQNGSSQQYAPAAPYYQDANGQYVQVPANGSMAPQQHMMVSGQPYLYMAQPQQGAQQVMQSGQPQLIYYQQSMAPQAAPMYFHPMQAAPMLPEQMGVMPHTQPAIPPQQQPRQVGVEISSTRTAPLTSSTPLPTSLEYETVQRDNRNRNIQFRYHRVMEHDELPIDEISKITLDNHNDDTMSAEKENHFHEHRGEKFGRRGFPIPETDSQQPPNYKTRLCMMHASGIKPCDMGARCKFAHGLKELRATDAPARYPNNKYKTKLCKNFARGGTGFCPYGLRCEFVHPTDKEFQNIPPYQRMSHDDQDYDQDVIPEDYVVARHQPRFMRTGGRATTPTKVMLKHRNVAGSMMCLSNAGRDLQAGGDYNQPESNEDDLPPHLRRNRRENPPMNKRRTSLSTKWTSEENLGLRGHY

[16] = molecular target: Keap1/Nrf2 (Homo sapiens, UniProt Q14145); test: Keap1-Nrf2 protein-protein interaction inhibitors, dose response, biochemical, fluorescence polarization, cherry-picked samples (AID 588683)
Chain of Keap1/Nrf2 (Q16236 whole entry): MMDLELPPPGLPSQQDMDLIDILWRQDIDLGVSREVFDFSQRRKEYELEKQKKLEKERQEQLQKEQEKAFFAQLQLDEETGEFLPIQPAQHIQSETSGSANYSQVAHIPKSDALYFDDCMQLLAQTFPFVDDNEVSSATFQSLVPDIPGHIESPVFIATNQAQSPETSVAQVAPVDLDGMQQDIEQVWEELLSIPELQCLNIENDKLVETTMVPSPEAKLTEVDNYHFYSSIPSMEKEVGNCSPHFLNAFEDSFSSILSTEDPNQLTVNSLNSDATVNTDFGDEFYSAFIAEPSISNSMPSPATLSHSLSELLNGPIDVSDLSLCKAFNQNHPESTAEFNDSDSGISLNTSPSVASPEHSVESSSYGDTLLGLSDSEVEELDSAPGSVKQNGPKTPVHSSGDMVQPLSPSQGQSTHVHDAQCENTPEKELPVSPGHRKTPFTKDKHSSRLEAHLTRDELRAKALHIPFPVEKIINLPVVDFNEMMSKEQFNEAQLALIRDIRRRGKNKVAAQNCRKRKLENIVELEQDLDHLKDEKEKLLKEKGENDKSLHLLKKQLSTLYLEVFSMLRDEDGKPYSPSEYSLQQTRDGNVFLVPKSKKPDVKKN
Chain of Keap1/Nrf2 (Q14145 whole entry): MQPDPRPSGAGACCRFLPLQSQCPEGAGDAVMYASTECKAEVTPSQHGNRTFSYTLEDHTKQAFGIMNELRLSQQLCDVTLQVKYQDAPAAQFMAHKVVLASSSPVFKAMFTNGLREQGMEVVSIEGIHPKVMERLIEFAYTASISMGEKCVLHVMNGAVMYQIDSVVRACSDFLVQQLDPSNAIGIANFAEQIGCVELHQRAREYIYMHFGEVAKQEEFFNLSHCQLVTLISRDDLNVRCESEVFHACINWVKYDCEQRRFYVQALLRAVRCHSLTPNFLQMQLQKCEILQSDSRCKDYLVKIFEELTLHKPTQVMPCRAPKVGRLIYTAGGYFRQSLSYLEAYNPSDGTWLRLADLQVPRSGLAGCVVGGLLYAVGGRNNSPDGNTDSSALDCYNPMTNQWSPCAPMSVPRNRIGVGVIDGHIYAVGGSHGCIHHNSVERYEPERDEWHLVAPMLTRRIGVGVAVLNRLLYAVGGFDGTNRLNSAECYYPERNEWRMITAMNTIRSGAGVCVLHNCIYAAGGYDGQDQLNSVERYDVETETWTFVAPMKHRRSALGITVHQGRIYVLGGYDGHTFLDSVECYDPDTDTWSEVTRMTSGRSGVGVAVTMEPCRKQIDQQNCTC

SMILES: CC(Oc1cccc(Br)c1)C(=O)NNC(=O)c1ccccn1 (stereo not drawn)
IC50 [1]: > 20 µM (inactive)
AC50 [2]: 7.18 µM (active)
IC50 [3]: > 79 µM (inactive)
AC50 [4]: 41.2 µM (active)
AC50 [5]: 3.36 µM (active)
AC50 [6]: 49.4 µM (active)
AC50 [7]: 3.19 µM (active)

SMILES: Cc1ccc(Cn2c(=N)n(CC(=O)c3ccccc3)c3ccccc32)cc1
IC50 [8]: 1.8 µM (active)
IC50 [9]: 1.86 µM (active)
EC50 [10]: > 195 µM (not active)
AC50 [11]: 7.43 µM (active)

SMILES: O=C(O)c1nn(-c2ccccc2-c2nnc(O)nc2O)c(=O)[nH]c1=O
AC50 [13]: inconclusive

Next, values leading:

AC50 [12]: 3.08 µM (active)
SMILES: COc1cc(N2CN=c3s/c(=C\c4ccccn4)c(=O)n3C2)cc(OC)c1OC

AC50 [13]: inconclusive
SMILES: c1ccc(C2OCC3(CO2)COC(c2ccccc2)OC3)cc1 (stereo not drawn)

EC50 [14]: 158 µM (inconclusive)
EC50 [15]: 177 µM (inconclusive)
AC50 [16]: > 52 µM (inactive)
SMILES: CCCCOc1ccc(/C=C2/Sc3ccccc3C2=O)cc1

AC50 [12]: 7.77 µM (active)
SMILES: O=C(Cc1c(F)cccc1Cl)Nc1nc2ccccc2s1
